Drawing on ChEMBL document CHEMBL1909046, “DrugMatrix in vitro pharmacology data”, this text covers IC50 and Ki for 16 compounds.

The structures appear in SMILES notation.

A short description of series [1]: DRUGMATRIX: Serotonin (5-Hydroxytryptamine) 5-HT3 radioligand binding (ligand: [3H] GR-65630). In kind it is cell membranes, Membrane. Conditions: hek293; Not Active = under 50% inhibition at 10 µM.
The next series addresses Glycine receptor (Rattus norvegicus, UniProt P22771+P24524+P07727+P20781). In kind it is cell membranes, Wistar, Spinal cord, Membrane.
A short description of series [2]: DRUGMATRIX: Nicotinic Acetylcholine radioligand binding (ligand: [125I] Epibatidine). The format is cell membranes, Membrane. Conditions: imr-32; Not Active = under 50% inhibition at 10 µM.
In series [3] the target is Kappa-type opioid receptor (Homo sapiens, UniProt P41145). Put plainly: DRUGMATRIX: Opiate kappa (OP2, KOP) radioligand binding (ligand: [3H] Diprenorphine). The format is cell membranes, HEK293, Membrane. Conditions: Not Active = under 50% inhibition at 10 µM.
A further series addresses T1, Neutrophil elastase (Homo sapiens, UniProt P08246).
T1 sequence (P08246 whole entry): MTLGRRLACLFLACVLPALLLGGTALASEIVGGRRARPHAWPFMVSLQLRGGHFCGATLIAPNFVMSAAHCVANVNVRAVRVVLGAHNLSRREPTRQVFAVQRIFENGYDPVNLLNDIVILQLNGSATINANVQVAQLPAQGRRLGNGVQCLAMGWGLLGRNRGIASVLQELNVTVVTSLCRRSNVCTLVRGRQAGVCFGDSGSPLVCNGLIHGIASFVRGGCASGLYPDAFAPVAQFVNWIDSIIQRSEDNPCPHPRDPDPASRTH
In kind it is tissue-based.

The target in series [4] is Tyrosine-protein kinase Fyn (Homo sapiens, UniProt P06241). Put plainly: biochemical. In kind it is cell-based, Insect cells. Conditions: insect cells.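 Also: enzymatic inhibition of Fyn kinase activity measured with Poly(Glu:Tyr) as the phosphorylation substrate; in other assays of this panel Not Active means under 50% inhibition at 10 µM.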
Another series concerns the target T2, Adenosine receptor A3 (Homo sapiens, UniProt P0DMS8).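 Also: radioligand binding assay with AB-MECA serving as the labeled ligand; in other assays of this panel Not Active means under 50% inhibition at 10 µM.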
T2 sequence (P0DMS8 whole entry): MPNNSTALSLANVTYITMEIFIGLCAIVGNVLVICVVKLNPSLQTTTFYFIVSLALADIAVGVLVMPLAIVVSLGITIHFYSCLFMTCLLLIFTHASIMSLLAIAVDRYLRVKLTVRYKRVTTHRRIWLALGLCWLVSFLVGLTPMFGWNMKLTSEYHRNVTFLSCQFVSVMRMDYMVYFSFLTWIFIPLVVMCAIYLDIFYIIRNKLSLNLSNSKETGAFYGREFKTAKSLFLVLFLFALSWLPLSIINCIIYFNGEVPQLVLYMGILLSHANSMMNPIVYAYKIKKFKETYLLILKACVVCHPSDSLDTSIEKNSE
The format is cell membranes, CHO-K1, Membrane. Conditions: for Ki: read-out: Ki.

Another series deals with Cytochrome P450 2C19 (Homo sapiens, UniProt P33261). Conditions: bti-tn-5b1-4.
Chain of Cytochrome P450 2C19 (P33261 whole entry): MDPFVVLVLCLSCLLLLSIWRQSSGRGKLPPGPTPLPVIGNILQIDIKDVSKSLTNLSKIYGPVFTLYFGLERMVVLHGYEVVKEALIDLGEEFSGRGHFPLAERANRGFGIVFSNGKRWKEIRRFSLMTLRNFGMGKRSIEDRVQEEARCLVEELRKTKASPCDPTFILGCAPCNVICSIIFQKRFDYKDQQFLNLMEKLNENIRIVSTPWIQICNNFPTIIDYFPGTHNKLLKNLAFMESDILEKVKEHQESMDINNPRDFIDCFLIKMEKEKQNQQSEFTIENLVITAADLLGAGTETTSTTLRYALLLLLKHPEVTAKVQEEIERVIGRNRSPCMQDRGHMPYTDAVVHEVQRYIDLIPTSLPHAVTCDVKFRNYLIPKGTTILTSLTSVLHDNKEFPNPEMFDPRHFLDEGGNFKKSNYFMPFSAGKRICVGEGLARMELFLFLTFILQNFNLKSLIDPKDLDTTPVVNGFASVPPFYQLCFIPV

Chain of Kappa-type opioid receptor (P41145 whole entry): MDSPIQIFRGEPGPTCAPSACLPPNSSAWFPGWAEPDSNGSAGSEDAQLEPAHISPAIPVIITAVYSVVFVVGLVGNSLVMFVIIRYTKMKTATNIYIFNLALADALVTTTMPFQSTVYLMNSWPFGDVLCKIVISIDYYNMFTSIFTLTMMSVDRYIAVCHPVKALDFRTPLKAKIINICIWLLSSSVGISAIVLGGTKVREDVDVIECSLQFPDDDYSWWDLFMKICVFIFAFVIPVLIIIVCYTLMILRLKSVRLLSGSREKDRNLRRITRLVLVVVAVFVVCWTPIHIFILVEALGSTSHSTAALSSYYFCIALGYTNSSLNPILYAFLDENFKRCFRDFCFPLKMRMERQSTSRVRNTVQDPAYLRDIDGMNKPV
Chain of Tyrosine-protein kinase Fyn (P06241 whole entry): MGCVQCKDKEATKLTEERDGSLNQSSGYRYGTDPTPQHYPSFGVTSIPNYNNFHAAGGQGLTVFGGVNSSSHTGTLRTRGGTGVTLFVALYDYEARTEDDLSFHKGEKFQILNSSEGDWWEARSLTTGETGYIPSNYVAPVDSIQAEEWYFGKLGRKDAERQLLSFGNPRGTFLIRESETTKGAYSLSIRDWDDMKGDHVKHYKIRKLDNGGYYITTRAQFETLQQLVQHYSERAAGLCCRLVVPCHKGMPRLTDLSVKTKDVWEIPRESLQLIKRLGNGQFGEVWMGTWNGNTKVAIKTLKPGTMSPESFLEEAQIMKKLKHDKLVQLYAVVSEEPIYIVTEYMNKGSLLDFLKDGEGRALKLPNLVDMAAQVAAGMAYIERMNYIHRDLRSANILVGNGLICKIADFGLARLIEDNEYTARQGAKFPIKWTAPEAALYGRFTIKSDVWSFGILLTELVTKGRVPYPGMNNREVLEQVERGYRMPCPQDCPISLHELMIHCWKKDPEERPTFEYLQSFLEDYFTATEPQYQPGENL

Regarding `N#CC(C#N)=Cc1ccc(O)c(O)c1` [TYRPHOSTIN 23], the IC50 result (in series [1]; on Glycine receptor; in series [2]; in series [3] (hek293); at Neutrophil elastase; in series [4]) was “Not Active” in each case. Further, the IC50 entry against Adenosine receptor A3 (cho-k1) and against Cytochrome P450 2C19 was “Not Active” in each case. In addition, the Ki result (in series [1]; in series [2]; at Cytochrome P450 2C19) was “Not Active” throughout.

Consider `C=CCC1(C(C)CCC)C(=O)NC(=O)NC1=O` (centres undefined) [SECOBARBITAL], for which the IC50 entry (in series [1]; against Glycine receptor; in series [2]; in series [3] (hek293); on Neutrophil elastase; in series [4]) was “Not Active” throughout. The IC50 entry against Adenosine receptor A3 (cho-k1) and on Cytochrome P450 2C19 was “Not Active” in each case. Besides, the Ki entry (in series [1]; in series [2]; at Cytochrome P450 2C19) was “Not Active” throughout.

On to `OCCN(CCO)c1nc(N2CCCCC2)c2nc(N(CCO)CCO)nc(N3CCCCC3)c2n1` [DIPYRIDAMOLE], for which the IC50 result (in series [1]; on Glycine receptor; in series [2]; in series [3] (hek293); at Neutrophil elastase; in series [4]) was “Not Active” throughout. Also, the IC50 result against Adenosine receptor A3 (cho-k1) and at Cytochrome P450 2C19 was “Not Active” in each case. In addition, the Ki result (in series [1]; in series [2]; at Cytochrome P450 2C19) was “Not Active” in each case.

For the compound `Nc1c2c(nc3ccccc13)CCCC2` [TACRINE], the IC50 result (in series [1]; at Glycine receptor; in series [2]; in series [3] (hek293); at Neutrophil elastase; in series [4]) was “Not Active” throughout. The IC50 result against Adenosine receptor A3 (cho-k1) and at Cytochrome P450 2C19 was “Not Active” in each case. For the same compound, the Ki entry (in series [1]; in series [2]; at Cytochrome P450 2C19) was “Not Active” each time.

Consider `Cn1ccnc1S` [METHIMAZOLE], for which the IC50 entry (in series [1]; against Glycine receptor; in series [2]; in series [3] (hek293); against Neutrophil elastase; in series [4]) was “Not Active” each time. The IC50 result against Adenosine receptor A3 (cho-k1) and at Cytochrome P450 2C19 was “Not Active” each time. Moreover, the Ki result (in series [1]; in series [2]; on Cytochrome P450 2C19) was “Not Active” in each case.

As for `N[C@@H]1[C@H]2CN(c3nc4c(cc3F)c(=O)c(C(=O)O)cn4-c3ccc(F)cc3F)C[C@@H]12` [TROVAFLOXACIN], the IC50 result (in series [1]; against Glycine receptor; in series [2]; in series [3] (hek293); against Neutrophil elastase; in series [4]) was “Not Active” in each case. For the same compound, the IC50 entry on Adenosine receptor A3 (cho-k1) and against Cytochrome P450 2C19 was “Not Active” each time. The inhibition constant Ki result (in series [1]; in series [2]; on Cytochrome P450 2C19) was “Not Active” throughout.

Take `CC1(C)O[C@@H]2C[C@H]3[C@@H]4CCC5=CC(=O)C=C[C@]5(C)[C@@]4(F)[C@@H](O)C[C@]3(C)[C@]2(C(=O)CO)O1` [TRIAMCINOLONE ACETONIDE]: the IC50 entry (in series [1]; against Glycine receptor; in series [2]; in series [3] (hek293); on Neutrophil elastase; in series [4]) was “Not Active” in each case. In addition, the IC50 entry against Adenosine receptor A3 (cho-k1) and at Cytochrome P450 2C19 was “Not Active” in each case. In addition, the Ki entry (in series [1]; in series [2]; on Cytochrome P450 2C19) was “Not Active” in each case.

As to `NC[C@H]1CC[C@H](C(=O)O)CC1` [TRANEXAMIC ACID], the IC50 entry (in series [1]; against Glycine receptor; in series [2]; in series [3] (hek293); at Neutrophil elastase; in series [4]) was “Not Active” in each case. For the same compound, the IC50 result at Adenosine receptor A3 (cho-k1) and on Cytochrome P450 2C19 was “Not Active” each time. In addition, the Ki result (in series [1]; in series [2]; on Cytochrome P450 2C19) was “Not Active” throughout.

Turning to `COc1c(C)c2c(c(O)c1C/C=C(\C)CCC(=O)O)C(=O)OC2` [MYCOPHENOLIC ACID], the IC50 entry (in series [1]; against Glycine receptor; in series [2]; in series [3] (hek293); on Neutrophil elastase; in series [4]) was “Not Active” each time. Further, the IC50 entry against Adenosine receptor A3 (cho-k1) and at Cytochrome P450 2C19 was “Not Active” throughout. The Ki result (in series [1]; in series [2]; on Cytochrome P450 2C19) was “Not Active” in each case.

Regarding `CO[C@H]1/C=C/O[C@@]2(C)Oc3c(C)c(O)c4c(O)c(c(/C=N/N5CCN(C)CC5)c(O)c4c3C2=O)NC(=O)/C(C)=C\C=C\[C@H](C)[C@H](O)[C@@H](C)[C@@H](O)[C@@H](C)[C@H](OC(C)=O)[C@@H]1C` [RIFAMPIN], the IC50 result (in series [1]; at Glycine receptor; in series [2]; in series [3] (hek293); against Neutrophil elastase; in series [4]) was “Not Active” each time. Further, the IC50 entry at Adenosine receptor A3 (cho-k1) and against Cytochrome P450 2C19 was “Not Active” in each case. Moreover, the Ki entry (in series [1]; in series [2]; on Cytochrome P450 2C19) was “Not Active” throughout.

For `O=NN(CCCl)C(=O)NC1CCCCC1` [LOMUSTINE], the IC50 entry (in series [1]; against Glycine receptor; in series [2]; in series [3] (hek293); at Neutrophil elastase; in series [4]) was “Not Active” in each case. Also, the IC50 result at Adenosine receptor A3 (cho-k1) and on Cytochrome P450 2C19 was “Not Active” in each case. Further, the Ki entry (in series [1]; in series [2]; at Cytochrome P450 2C19) was “Not Active” in each case.

Consider `CSc1ccc(/C=C2/C(C)=C(CC(=O)O)c3cc(F)ccc32)cc1` [SULINDAC SULFIDE], for which the IC50 entry (in series [1]; at Glycine receptor; in series [2]; in series [3] (hek293); on Neutrophil elastase; in series [4]) was “Not Active” throughout. Besides, the IC50 on Adenosine receptor A3 (read-out: IC50) was 7.23 µM; on Cytochrome P450 2C19 it was “Not Active”. Further, the inhibition constant (Ki) entry was “Not Active” in series [1], “Not Active” in series [2], 4.09 µM on Adenosine receptor A3 and “Not Active” on Cytochrome P450 2C19.

With `Cc1noc(NS(=O)(=O)c2ccc(N)cc2)c1C` [SULFISOXAZOLE], the IC50 entry (in series [1]; at Glycine receptor; in series [2]; in series [3] (hek293); against Neutrophil elastase; in series [4]) was “Not Active” each time. Moreover, the IC50 result against Adenosine receptor A3 (cho-k1) and against Cytochrome P450 2C19 was “Not Active” each time. For the same compound, the Ki result (in series [1]; in series [2]; at Cytochrome P450 2C19) was “Not Active” throughout.

Regarding `Cc1oncc1C(=O)Nc1ccc(C(F)(F)F)cc1` [LEFLUNOMIDE], the IC50 entry (in series [1]; against Glycine receptor; in series [2]; in series [3] (hek293); on Neutrophil elastase; in series [4]) was “Not Active” throughout. For the same compound, the IC50 entry at Adenosine receptor A3 (cho-k1) and against Cytochrome P450 2C19 was “Not Active” throughout. Further, the Ki entry (in series [1]; in series [2]; at Cytochrome P450 2C19) was “Not Active” in each case.

For the compound `CC(C)(C)NC(=O)[C@@H]1C[C@@H]2CCCC[C@@H]2CN1C[C@@H](O)[C@H](Cc1ccccc1)NC(=O)[C@H](CC(N)=O)NC(=O)c1ccc2ccccc2n1`, the IC50 result is “Not Active” in series [1]; “Not Active” against Glycine receptor; “Not Active” in series [2]; 6.95 µM in series [3] (read-out: IC50); “Not Active” against Neutrophil elastase; “Not Active” in series [4]. Further, the IC50 result against Adenosine receptor A3 (cho-k1) and against Cytochrome P450 2C19 was “Not Active” throughout. The Ki result in series [1] was “Not Active”; in series [2], “Not Active”; in series [3], 2.78 µM; on Cytochrome P450 2C19 it was “Not Active”.

As to `Nc1nc2nc[nH]c2c(=S)[nH]1` [THIOGUANINE], the IC50 entry (in series [1]; on Glycine receptor; in series [2]; in series [3] (hek293); against Neutrophil elastase; in series [4]) was “Not Active” in each case. The figures for the IC50 on Adenosine receptor A3 (read-out: IC50) and against Cytochrome P450 2C19 were 21.7 µM and “Not Active”, respectively. Moreover, the Ki result was “Not Active” in series [1], “Not Active” in series [2], 12.3 µM on Adenosine receptor A3 and “Not Active” at Cytochrome P450 2C19.

Broadly, the IC50 is the concentration that gives 50% inhibition. Broadly, the Ki is a dissociation constant, usually derived from enzyme kinetics or from competition with a known ligand.
